# Earlier results, collected in patent US7498301B2, “Composition containing dipeptide of histidine and alanine for reducing uric acid and method for reducing uric acid using the dipeptide” (Lytone Enterprise, Inc., priority 2003, dated 2009).
# How the values were obtained:
# [1] = low pH (<3.0)
# [2] = system: peptidase and proteases excreted from pancreas or other digestive organs
smiles,measurement,setting,value
"NCCC(=O)N[C@@H](Cc1cnc[nH]1)C(=O)O [carnosine, β-alanyl-L-histidine]",Stability under low pH,[1],remain intact
same,Digestion by peptidase and proteases,[2],resist against digestion
